Experimental data published in patent US8394788B2, “Phenylsulfoxyoxazole compound inhibitors of urea transporters” (The Regents of the University of California, priority 2006, dated 2013).

How the values were obtained:
rat UT-A1 = target: T1, rat UT-A1 (Rattus norvegicus, UniProt Q62668); experiment: UT-A1-facilitated urea flux across MDCK-UT-A1 cell layers; format: cell-based; conditions: forskolin 10 μM; phloretin 0.7 mM
T1 sequence (Q62668 1-929): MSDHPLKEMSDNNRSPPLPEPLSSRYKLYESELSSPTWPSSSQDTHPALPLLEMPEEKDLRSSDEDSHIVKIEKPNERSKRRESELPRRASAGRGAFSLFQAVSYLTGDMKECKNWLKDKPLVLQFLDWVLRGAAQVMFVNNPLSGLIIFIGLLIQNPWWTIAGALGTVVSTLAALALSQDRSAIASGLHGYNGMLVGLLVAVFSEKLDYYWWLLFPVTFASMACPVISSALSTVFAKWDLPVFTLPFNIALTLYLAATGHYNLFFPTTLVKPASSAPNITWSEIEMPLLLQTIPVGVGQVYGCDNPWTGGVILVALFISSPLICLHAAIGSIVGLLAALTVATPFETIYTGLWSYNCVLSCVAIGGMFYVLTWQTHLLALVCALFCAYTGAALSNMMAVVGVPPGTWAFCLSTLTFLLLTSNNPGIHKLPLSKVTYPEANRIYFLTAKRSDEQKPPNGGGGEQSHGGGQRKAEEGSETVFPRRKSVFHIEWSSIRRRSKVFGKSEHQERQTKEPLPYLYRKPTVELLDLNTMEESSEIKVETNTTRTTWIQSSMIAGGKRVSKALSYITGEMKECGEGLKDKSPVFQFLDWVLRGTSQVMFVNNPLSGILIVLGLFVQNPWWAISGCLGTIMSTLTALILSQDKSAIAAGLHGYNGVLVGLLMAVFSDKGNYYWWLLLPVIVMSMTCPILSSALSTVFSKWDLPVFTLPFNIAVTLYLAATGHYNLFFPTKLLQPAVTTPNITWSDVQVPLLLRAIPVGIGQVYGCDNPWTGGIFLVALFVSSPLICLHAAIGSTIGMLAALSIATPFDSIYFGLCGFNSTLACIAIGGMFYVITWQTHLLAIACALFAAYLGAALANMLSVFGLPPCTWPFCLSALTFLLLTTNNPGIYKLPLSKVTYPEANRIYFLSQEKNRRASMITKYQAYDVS
Procedure: Concentration-inhibition studies were performed to study the effect of the active mouse UT-B inhibitors on urea transport by UT-A. The amino acid sequences of UT-B and UT-A urea transporter isoforms share significant similarity. The cells used in these studies were MDCK cells that expressed rat UT-A1. MDCK-UT-A1-expressing cells were grown on collagen-coated porous filters until they were electrically tight, at which point 15 mM urea was introduced into buffer bathing the basolateral cell surface. […]
UT-A1-facilitated urea flux in the basolateral-to-apical direction across unstimulated and forskolin-stimulated MDCK-UT-A1 cell layers was measured in response to a 15-mM urea gradient. […] Five μL samples of apical fluid were collected at specified times during incubation at 37° C., and urea concentration was determined using a commercial kit based on chromogenic urea complexation at 520-nm wavelength (Quantichrom™ Urea Assay Kit, BioAssay Systems, Hayward, Calif.). […] Aforsk, and Aphlor were averaged absorbance values (at 520 nm) for cultures treated with forskolin and forskolin+phloretin, respectively, and Atest were values from cultures treated with forskolin+test compound.

RBCs from wild-type mice = experiment: Osmotic water permeability, RBCs from wild-type mice (stopped-flow); format: cell-based, mouse
Procedure: RBC urea and water permeabilities were assayed by stopped-flow light scattering using a Hi-Tech Sf-51 instrument (Wiltshire, UK). For measurement of urea permeability, dilutions of whole blood (human or mouse; see Example 1) in PBS (hematocrit: approximately 0.5%) were incubated with test compounds for 5 min and then subjected to a 250-mM inwardly directed gradient of urea. After an initial osmotic shrinking phase, the kinetics of increasing cell volume caused by urea influx were measured as the time-course of 90° scattered light intensity at 530 nm, with increasing cell volume resulting in reduced scattered light intensity. As a positive control, 0.7 mM phloretin was added to the RBC suspension prior to stopped-flow experiments. Measurements of water permeability were carried out similarly, with sucrose (cell-impermeant) used instead of urea to establish a 250-mM osmotic gradient. As a positive control, HgCl2 (0.3 mM) was added to the RBC suspension prior to stopped-flow measurements. Osmotic water permeability coefficients (Pf) were computed from light scattering data as described (van Hoek et al., J Biol. Chem. 267:18267-69 (1992)).
This example describes chemical knock-out of UT-B by UT-B inhibitors in RBCs and the effect on UT-B-facilitated water transport. […] Osmotic water permeability was measured by stopped-flow light scattering in RBCs from wild-type and AQP1-null mice as shown in FIG. 8A. […] AQP1-null RBCs had greater than 5-fold reduced Pf compared to wild-type RBCs.

UT = conditions: cited from earlier work

O=C(CCc1ccc(O)cc1)c1c(O)cc(O)cc1O [phloretin, reference compound]
effect on UT-A1-facilitated urea transport (rat UT-A1): inhibited | reduction in Pf (RBCs from wild-type mice; 0.7 mM, wild-type mouse RBCs): small but significant reduction | effect on water transport in RBCs from wild-type mice (RBCs from wild-type mice; 10° C., 250-mM sucrose gradient): little effect | concentration exhibiting activity as UT inhibitor (UT): > 0.5 mM
